Data from patent US20190031618A1, “BENZIMIDAZOLE DERIVATIVES USEFUL AS CB-1 INVERSE AGONISTS” (Janssen Pharmaceutica NV, priority 2015, published 2019).

System: DIO mice
Assay: Chronic DIO Mouse: food intake, body weight, plasma insulin
Format: in vivo
Details: for Mean Body Weight (Std Err) / Plasma Insulin (Std Err): DIO mice; for Plasma Insulin (Std Err): chronic study; for Mean Daily Food Intake: chronic DIO mouse, (Std Err)
Procedure: Male 14-20-week old diet-induced obese mice are ordered from Taconic. Mice were started on a 60% fat diet (D12492, Research Diets, New Brunswick, N.J.) at 6 weeks of age. Mice are single-housed.
DIO mice received vehicle, test compound (@ 1, 3, 10, and 30 mg/kg) daily for 26 days. At the end of the experiment, the mice were euthanized and blood and tissues were collected.
Body weight and food weight (food intake) were monitored daily for days 1-5 and twice weekly thereafter.
Blood glucose was measured from the tail vein with a Lifescan glucometer. Plasma insulin was measured with an ELISA or HTRF kit (Cisbio). Plasma parameters were measured with an Olympus clinical chemistry analyzer.

O=C(O)c1cccc(CN2CCC(n3c(C4CC4)nc4ccc(C(c5ccc(Cl)cc5)c5ccc(Cl)cc5)cc43)CC2)c1 [Example 148]
Mean Body Weight (Std Err) (3 mg/kg daily, Day 15): 40.43 (0.40) Grams | Mean Body Weight (Std Err) (3 mg/kg daily, Day 18): 39.84 (0.53) Grams | Mean Body Weight (Std Err) (3 mg/kg daily, Day 24): 40.48 (0.48) Grams | Plasma Insulin (Std Err) (3 mg/kg daily): 4.74 (0.83) ng/mL | Mean Body Weight (Std Err) (10 mg/kg daily, Day 0): 42.09 (0.85) Grams | Mean Body Weight (Std Err) (10 mg/kg daily, Day 1): 42.69 (0.74) Grams | Mean Body Weight (Std Err) (10 mg/kg daily, Day 2): 40.46 (0.66) Grams | Mean Body Weight (Std Err) (10 mg/kg daily, Day 3): 39.85 (0.68) Grams | Mean Body Weight (Std Err) (10 mg/kg daily, Day 4): 39.44 (0.70) Grams | Mean Body Weight (Std Err) (10 mg/kg daily, Day 5): 38.78 (0.70) Grams | Mean Body Weight (Std Err) (10 mg/kg daily, Day 8): 37.4 (0.67) Grams | Mean Body Weight (Std Err) (10 mg/kg daily, Day 11): 36.99 (0.78) Grams | Mean Body Weight (Std Err) (10 mg/kg daily, Day 15): 37.33 (0.84) Grams | Mean Body Weight (Std Err) (10 mg/kg daily, Day 18): 37.02 (0.88) Grams | Mean Body Weight (Std Err) (10 mg/kg daily, Day 24): 36.42 (1.25) Grams | Plasma Insulin (Std Err) (10 mg/kg daily): 2.20 (0.13) ng/mL | Mean Body Weight (Std Err) (30 mg/kg daily, Day 0): 42.46 (0.58) Grams | Mean Body Weight (Std Err) (30 mg/kg daily, Day 1): 43.13 (0.69) Grams | Mean Body Weight (Std Err) (30 mg/kg daily, Day 2): 39.64 (0.68) Grams | Mean Body Weight (Std Err) (30 mg/kg daily, Day 3): 38.53 (0.66) Grams | Mean Body Weight (Std Err) (30 mg/kg daily, Day 4): 37.46 (0.75) Grams | Mean Body Weight (Std Err) (30 mg/kg daily, Day 5): 36.67 (0.75) Grams | Mean Body Weight (Std Err) (30 mg/kg daily, Day 8): 34.95 (0.78) Grams | Mean Body Weight (Std Err) (30 mg/kg daily, Day 11): 33.79 (0.87) Grams | Mean Body Weight (Std Err) (30 mg/kg daily, Day 15): 34.19 (0.64) Grams | Mean Body Weight (Std Err) (30 mg/kg daily, Day 18): 32.47 (0.92) Grams | Mean Body Weight (Std Err) (30 mg/kg daily, Day 24): 32.86 (0.91) Grams | Plasma Insulin (Std Err) (30 mg/kg daily): 2.85 (0.27) ng/mL | Mean Daily Food Intake (1 mg/kg daily, Day 2): 2.3 (0.1) Grams | Mean Daily Food Intake (1 mg/kg daily, Day 3): 2.3 (0.1) Grams | Mean Daily Food Intake (1 mg/kg daily, Day 4): 2.2 (0.1) Grams | Mean Daily Food Intake (1 mg/kg daily, Day 5): 2.4 (0.1) Grams | Mean Daily Food Intake (1 mg/kg daily, Day 8): 2.1 (0.1) Grams | Mean Daily Food Intake (1 mg/kg daily, Day 11): 2.3 (0.1) Grams | Mean Daily Food Intake (1 mg/kg daily, Day 15): 2.4 (0.1) Grams | Mean Daily Food Intake (1 mg/kg daily, Day 18): 1.6 (0.3) Grams | Mean Daily Food Intake (1 mg/kg daily, Day 24): 2.1 (0.2) Grams | Mean Daily Food Intake (3 mg/kg daily, Day 2): 2.0 (0.2) Grams | Mean Daily Food Intake (3 mg/kg daily, Day 3): 2.0 (0.1) Grams | Mean Daily Food Intake (3 mg/kg daily, Day 4): 1.9 (0.2) Grams | Mean Daily Food Intake (3 mg/kg daily, Day 5): 1.8 (0.2) Grams | Mean Daily Food Intake (3 mg/kg daily, Day 8): 1.7 (0.1) Grams | Mean Daily Food Intake (3 mg/kg daily, Day 11): 1.8 (0.1) Grams | Mean Daily Food Intake (3 mg/kg daily, Day 15): 2.5 (0.1) Grams | Mean Daily Food Intake (3 mg/kg daily, Day 18): 2.2 (0.1) Grams | Mean Daily Food Intake (3 mg/kg daily, Day 24): 2.2 (0.1) Grams | Mean Daily Food Intake (10 mg/kg daily, Day 2): 0.5 (0.1) Grams | Mean Daily Food Intake (10 mg/kg daily, Day 3): 0.9 (0.1) Grams | Mean Daily Food Intake (10 mg/kg daily, Day 4): 1.7 (0.2) Grams | Mean Daily Food Intake (10 mg/kg daily, Day 5): 1.8 (0.2) Grams | Mean Daily Food Intake (10 mg/kg daily, Day 8): 1.7 (0.1) Grams | Mean Daily Food Intake (10 mg/kg daily, Day 11): 2.0 (0.1) Grams | Mean Daily Food Intake (10 mg/kg daily, Day 15): 2.3 (0.1) Grams | Mean Daily Food Intake (10 mg/kg daily, Day 18): 2.3 (0.1) Grams | Mean Daily Food Intake (10 mg/kg daily, Day 24): 2.2 (0.2) Grams | Mean Daily Food Intake (30 mg/kg daily, Day 2): 0.1 (0.1) Grams | Mean Daily Food Intake (30 mg/kg daily, Day 3): 0.5 (0.1) Grams | Mean Daily Food Intake (30 mg/kg daily, Day 4): 0.7 (0.1) Grams | Mean Daily Food Intake (30 mg/kg daily, Day 5): 1.0 (0.2) Grams | Mean Daily Food Intake (30 mg/kg daily, Day 8): 1.3 (0.2) Grams | Mean Daily Food Intake (30 mg/kg daily, Day 11): 1.7 (0.2) Grams | Mean Daily Food Intake (30 mg/kg daily, Day 15): 2.3 (0.1) Grams | Mean Daily Food Intake (30 mg/kg daily, Day 18): 1.8 (0.2) Grams | Mean Daily Food Intake (30 mg/kg daily, Day 24): 2.4 (0.1) Grams
